Square brackets hold non-standard residues; d marks the D form. Peptide text beside a SMILES is read from it. 1Nal = N[C@@H](Cc1cccc2ccccc12)C(=O)O; pGlu = O=C1CC[C@@H](C(=O)O)N1
Assays:
[1] = target: T1, Corticotropin-releasing factor receptor 1 (Mus musculus, UniProt P35347); assay: In vitro effective concentration for mouse corticotropin releasing factor 1 receptor
T1 sequence (P35347 whole entry): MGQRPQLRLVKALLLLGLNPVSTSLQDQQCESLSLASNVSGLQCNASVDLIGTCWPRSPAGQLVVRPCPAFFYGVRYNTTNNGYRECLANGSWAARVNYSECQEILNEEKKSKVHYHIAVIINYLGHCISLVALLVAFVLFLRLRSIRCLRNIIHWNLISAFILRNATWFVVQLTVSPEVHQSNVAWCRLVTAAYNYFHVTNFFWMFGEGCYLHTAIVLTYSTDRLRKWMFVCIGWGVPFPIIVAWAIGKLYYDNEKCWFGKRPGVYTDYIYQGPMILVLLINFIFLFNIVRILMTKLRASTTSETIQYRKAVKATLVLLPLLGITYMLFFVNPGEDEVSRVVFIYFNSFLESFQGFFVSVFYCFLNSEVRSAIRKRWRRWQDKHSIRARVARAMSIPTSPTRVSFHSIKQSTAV

[2] = target: Corticotropin-releasing factor receptor 2 (Mus musculus, UniProt Q60748); assay: In vitro effective concentration for mouse corticotropin releasing factor 2 receptor
Chain of Corticotropin-releasing factor receptor 2 (Q60748 whole entry): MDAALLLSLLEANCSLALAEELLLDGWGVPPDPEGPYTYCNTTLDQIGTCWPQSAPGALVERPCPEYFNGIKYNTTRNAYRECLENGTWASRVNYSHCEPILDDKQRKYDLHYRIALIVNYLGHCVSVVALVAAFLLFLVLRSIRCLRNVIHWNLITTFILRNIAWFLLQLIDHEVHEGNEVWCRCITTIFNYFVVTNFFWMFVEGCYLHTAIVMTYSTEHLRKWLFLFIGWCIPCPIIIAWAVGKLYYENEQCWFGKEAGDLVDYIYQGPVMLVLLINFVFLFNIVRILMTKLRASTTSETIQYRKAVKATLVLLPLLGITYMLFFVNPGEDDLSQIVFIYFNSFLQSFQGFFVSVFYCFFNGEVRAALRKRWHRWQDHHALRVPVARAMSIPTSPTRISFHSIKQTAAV

| Molecule | EC50 [1] [nM] | EC50 [2] [nM] |
| --- | --- | --- |
| H-IVLSLDVPIGLLQILLEQARARAAREQATTNARILARV-OH [HUMAN UROCORTIN 2] | > 1000 | 4.3 |
| CC[C@H](C)[C@H](NC(=O)[C@@H](NC(=O)[C@H](CC(=O)O)NC(=O)[C@H](CC(C)C)NC(=O)[C@H](CC(C)C)NC(=O)[C@H](CC(C)C)NC(=O)[C@H](CCCNC(=N)N)NC(=O)[C@H](CC(N)=O)NC(=O)[C@H](CC(N)=O)NC(=O)[C@H](C)NC(=O)[C@H](C)NC(=O)[C@H](CCC(N)=O)NC(=O)[C@H](CCC(N)=O)NC(=O)[C@H](CCCCN)NC(=O)[C@H](CCC(=O)O)NC(=O)[C@H](CCCCN)NC(=O)[C@H](CCC(=O)O)NC(=O)[C@H](CCC(N)=O)NC(=O)[C@H](CCCCN)NC(=O)[C@H](CCC(=O)O)NC(=O)[C@@H](NC(=O)[C@H](CCC(=O)O)NC(=O)[C@@H](NC(=O)[C@H](CCSC)NC(=O)[C@H](CCCCN)NC(=O)[C@H](CCCNC(=N)N)NC(=O)[C@H](CC(C)C)NC(=O)[C@H](CC(C)C)NC(=O)[C@H](Cc1cccc2ccccc12)NC(=O)[C@H](CCC(N)=O)NC(=O)[C@@H]1CCCN1C(=O)[C@H](CC(C)C)NC(=O)[C@H](CC(=O)O)NC(=O)[C@@H](NC(=O)[C@H](CO)NC(=O)[C@@H](NC(=O)[C@@H]1CCCN1C(=O)[C@@H]1CCCN1C(=O)CNC(=O)[C@@H]1CCC(=O)N1)[C@@H](C)CC)[C@@H](C)CC)[C@@H](C)CC)[C@@H](C)CC)[C@@H](C)O)C(=O)O ([pGlu]GPPISIDLPQ[1Nal]LLRKMIEIEKQEKEKQQAANNRLLLDTI-OH) | 367 | 14.1 |
| CC[C@H](C)[C@H](NC(=O)[C@@H](NC(=O)[C@H](CC(=O)O)NC(=O)[C@H](CC(C)C)NC(=O)[C@H](CC(C)C)NC(=O)[C@H](CC(C)C)NC(=O)[C@H](CCCNC(=N)N)NC(=O)[C@H](CC(N)=O)NC(=O)[C@H](CC(N)=O)NC(=O)[C@H](C)NC(=O)[C@H](C)NC(=O)[C@H](CCC(N)=O)NC(=O)[C@H](CCC(N)=O)NC(=O)[C@H](CCCCN)NC(=O)[C@H](CCC(=O)O)NC(=O)[C@H](CCCCN)NC(=O)[C@H](CCC(=O)O)NC(=O)[C@H](CCC(N)=O)NC(=O)[C@H](CCCCN)NC(=O)[C@H](CCC(=O)O)NC(=O)[C@@H](NC(=O)[C@H](CCC(=O)O)NC(=O)[C@@H](NC(=O)[C@H](CCSC)NC(=O)[C@H](CCCCN)NC(=O)[C@H](CCCNC(=N)N)NC(=O)[C@H](CC(C)C)NC(=O)[C@H](CC(C)C)NC(=O)[C@H](CCC(N)=O)NC(=O)[C@H](Cc1ccc(O)cc1)NC(=O)[C@@H]1CCCN1C(=O)[C@H](CC(C)C)NC(=O)[C@H](CC(=O)O)NC(=O)[C@@H](NC(=O)[C@H](CO)NC(=O)[C@@H](NC(=O)[C@@H]1CCCN1C(=O)[C@@H]1CCCN1C(=O)CNC(=O)[C@@H]1CCC(=O)N1)[C@@H](C)CC)[C@@H](C)CC)[C@@H](C)CC)[C@@H](C)CC)[C@@H](C)O)C(=O)O | 404 | 8.6 |
| CC[C@H](C)[C@H](NC(=O)[C@@H](NC(=O)[C@H](CC(=O)O)NC(=O)[C@H](CC(C)C)NC(=O)[C@H](CC(C)C)NC(=O)[C@H](CC(C)C)NC(=O)[C@H](CCCNC(=N)N)NC(=O)[C@H](CC(N)=O)NC(=O)[C@H](CC(N)=O)NC(=O)[C@H](C)NC(=O)[C@H](C)NC(=O)[C@H](CCC(N)=O)NC(=O)[C@H](CCC(N)=O)NC(=O)[C@H](CCCCN)NC(=O)[C@H](CCC(=O)O)NC(=O)[C@H](CCCCN)NC(=O)[C@H](CCC(=O)O)NC(=O)[C@H](CCC(N)=O)NC(=O)[C@H](CCCCN)NC(=O)[C@H](CCC(=O)O)NC(=O)[C@@H](NC(=O)[C@H](CCC(=O)O)NC(=O)[C@@H](NC(=O)[C@H](CCSC)NC(=O)[C@H](CCCCN)NC(=O)[C@H](CCCNC(=N)N)NC(=O)[C@H](CC(C)C)NC(=O)[C@H](CC(C)C)NC(=O)[C@H](CCC(N)=O)NC(=O)[C@H](CCC(N)=O)NC(=O)[C@@H]1CCCN1C(=O)[C@H](CC(C)C)NC(=O)[C@H](CC(=O)O)NC(=O)[C@@H](NC(=O)[C@H](CO)NC(=O)[C@@H](NC(=O)[C@@H]1CCCN1C(=O)[C@@H]1CCCN1C(=O)CNC(=O)[C@@H]1CCC(=O)N1)[C@@H](C)CC)[C@@H](C)CC)[C@@H](C)CC)[C@@H](C)CC)[C@@H](C)O)C(=O)O | > 1000 | 29.9 |
| CC[C@H](C)[C@H](NC(=O)[C@@H](NC(=O)[C@H](CC(=O)O)NC(=O)[C@H](CC(C)C)NC(=O)[C@H](CC(C)C)NC(=O)[C@H](CC(C)C)NC(=O)[C@H](CCCNC(=N)N)NC(=O)[C@H](CC(N)=O)NC(=O)[C@H](CC(N)=O)NC(=O)[C@H](C)NC(=O)[C@H](C)NC(=O)[C@H](CCC(N)=O)NC(=O)[C@H](CCC(N)=O)NC(=O)[C@H](CCCCN)NC(=O)[C@H](CCC(=O)O)NC(=O)[C@H](CCCCN)NC(=O)[C@H](CCC(=O)O)NC(=O)[C@H](CCC(N)=O)NC(=O)[C@H](CCCCN)NC(=O)[C@H](CCC(=O)O)NC(=O)[C@@H](NC(=O)[C@H](CCC(=O)O)NC(=O)[C@@H](NC(=O)[C@H](CCSC)NC(=O)[C@H](CCCCN)NC(=O)[C@H](CCCNC(=N)N)NC(=O)[C@H](CC(C)C)NC(=O)[C@H](CC(C)C)NC(=O)[C@H](CC(C)C)NC(=O)[C@@H](NC(=O)[C@@H]1CCCN1C(=O)[C@H](CC(C)C)NC(=O)[C@H](CC(=O)O)NC(=O)[C@@H](NC(=O)[C@H](CO)NC(=O)[C@@H](NC(=O)[C@@H]1CCCN1C(=O)[C@@H]1CCCN1C(=O)CNC(=O)[C@@H]1CCC(=O)N1)[C@@H](C)CC)[C@@H](C)CC)[C@@H](C)O)[C@@H](C)CC)[C@@H](C)CC)[C@@H](C)O)C(=O)O | > 1000 | 20.6 |

These reach a lower EC50 [1]. Values come first.

| EC50 [1] [nM] | EC50 [2] [nM] | Molecule |
| --- | --- | --- |
| 85 | 5.9 | CC[C@H](C)[C@H](NC(=O)[C@@H](NC(=O)[C@H](CC(=O)O)NC(=O)[C@H](CC(C)C)NC(=O)[C@H](CC(C)C)NC(=O)[C@H](CC(C)C)NC(=O)[C@H](CCCNC(=N)N)NC(=O)[C@H](CC(N)=O)NC(=O)[C@H](CC(N)=O)NC(=O)[C@H](C)NC(=O)[C@H](C)NC(=O)[C@H](CCC(N)=O)NC(=O)[C@H](CCC(N)=O)NC(=O)[C@H](CCCCN)NC(=O)[C@H](CCC(=O)O)NC(=O)[C@H](CCCCN)NC(=O)[C@H](CCC(=O)O)NC(=O)[C@H](CCC(N)=O)NC(=O)[C@H](CCCCN)NC(=O)[C@H](CCC(=O)O)NC(=O)[C@@H](NC(=O)[C@H](CCC(=O)O)NC(=O)[C@@H](NC(=O)[C@H](CCSC)NC(=O)[C@H](CCCCN)NC(=O)[C@H](CCCNC(=N)N)NC(=O)[C@H](CC(C)C)NC(=O)[C@H](CC(C)C)NC(=O)[C@@H](NC(=O)[C@H](Cc1ccccc1)NC(=O)[C@@H]1CCCN1C(=O)[C@H](CC(C)C)NC(=O)[C@H](CC(=O)O)NC(=O)[C@@H](NC(=O)[C@H](CO)NC(=O)[C@@H](NC(=O)[C@@H]1CCCN1C(=O)[C@@H]1CCCN1C(=O)CNC(=O)[C@@H]1CCC(=O)N1)[C@@H](C)CC)[C@@H](C)CC)C(C)C)[C@@H](C)CC)[C@@H](C)CC)[C@@H](C)O)C(=O)O |
| 112 | 1.8 | CC[C@H](C)[C@H](NC(=O)[C@@H](NC(=O)[C@H](CC(=O)O)NC(=O)[C@H](CC(C)C)NC(=O)[C@H](CC(C)C)NC(=O)[C@H](CC(C)C)NC(=O)[C@H](CCCNC(=N)N)NC(=O)[C@H](CC(N)=O)NC(=O)[C@H](CC(N)=O)NC(=O)[C@H](C)NC(=O)[C@H](C)NC(=O)[C@H](CCC(N)=O)NC(=O)[C@H](CCC(N)=O)NC(=O)[C@H](CCCCN)NC(=O)[C@H](CCC(=O)O)NC(=O)[C@H](CCCCN)NC(=O)[C@H](CCC(=O)O)NC(=O)[C@H](CCC(N)=O)NC(=O)[C@H](CCCCN)NC(=O)[C@H](CCC(=O)O)NC(=O)[C@@H](NC(=O)[C@H](CCC(=O)O)NC(=O)[C@@H](NC(=O)[C@H](CCSC)NC(=O)[C@H](CCCCN)NC(=O)[C@H](CCCNC(=N)N)NC(=O)[C@H](CC(C)C)NC(=O)[C@H](CC(C)C)NC(=O)[C@H](CCC(N)=O)NC(=O)[C@H](Cc1ccccc1)NC(=O)[C@@H]1CCCN1C(=O)[C@H](CC(C)C)NC(=O)[C@H](CC(=O)O)NC(=O)[C@@H](NC(=O)[C@H](CO)NC(=O)[C@@H](NC(=O)[C@@H]1CCCN1C(=O)[C@@H]1CCCN1C(=O)CNC(=O)[C@@H]1CCC(=O)N1)[C@@H](C)CC)[C@@H](C)CC)[C@@H](C)CC)[C@@H](C)CC)[C@@H](C)O)C(=O)O |
| 162 | 7.4 | CC[C@H](C)[C@H](NC(=O)[C@@H](NC(=O)[C@H](CC(=O)O)NC(=O)[C@H](CC(C)C)NC(=O)[C@H](CC(C)C)NC(=O)[C@H](CC(C)C)NC(=O)[C@H](CCCNC(=N)N)NC(=O)[C@H](CC(N)=O)NC(=O)[C@H](CC(N)=O)NC(=O)[C@H](C)NC(=O)[C@H](C)NC(=O)[C@H](CCC(N)=O)NC(=O)[C@H](CCC(N)=O)NC(=O)[C@H](CCCCN)NC(=O)[C@H](CCC(=O)O)NC(=O)[C@H](CCCCN)NC(=O)[C@H](CCC(=O)O)NC(=O)[C@H](CCC(N)=O)NC(=O)[C@H](CCCCN)NC(=O)[C@H](CCC(=O)O)NC(=O)[C@@H](NC(=O)[C@H](CCC(=O)O)NC(=O)[C@@H](NC(=O)[C@H](CCSC)NC(=O)[C@H](CCCCN)NC(=O)[C@H](CCCNC(=N)N)NC(=O)[C@H](CC(C)C)NC(=O)[C@H](CC(C)C)NC(=O)[C@H](CC(C)C)NC(=O)[C@H](CC(C)C)NC(=O)[C@@H]1CCCN1C(=O)[C@H](CC(C)C)NC(=O)[C@H](CC(=O)O)NC(=O)[C@@H](NC(=O)[C@H](CO)NC(=O)[C@@H](NC(=O)[C@@H]1CCCN1C(=O)[C@@H]1CCCN1C(=O)CNC(=O)[C@@H]1CCC(=O)N1)[C@@H](C)CC)[C@@H](C)CC)[C@@H](C)CC)[C@@H](C)CC)[C@@H](C)O)C(=O)O |

Reference: ChEMBL document CHEMBL1139487, “Discovery of corticotropin releasing factor 2 receptor selective sauvagine analogues for treatment of skeletal muscle atrophy” (J Med Chem, 2005)
